Patent publication US20070275464A1, “Chitin Oligosaccharide Elicitor-Binding Proteins” (NATIONAL INSTITUTE OF AGROBIOLOGICAL SCIENCES, priority 2004, published 2007)

What was measured:
CEBiP-RNAi rice cells = assay: Reactive oxygen production due to elicitors in CEBiP-RNAi cultured rice cells; assay type: cell-based, Oryza sativa L. cv. Nipponbare; conditions: (GlcNH2)7 2 μg/mL
Protocol: (§1) Reactive oxygen production due to sugar elicitor treatment in NT and CEBiP-RNAi cultured rice cells was analyzed as follows: NT rice calli and CEBiP-RNAi rice calli were placed into 100 mL Erlenmeyer flasks containing 30 mL of N6 medium. After culturing at 27° C. for one week, the cells were strained, 0.6 mL of cells were transferred to 30 mL of fresh medium and cultured for another four days. 60 mg or 100 mg of each of the cultured cells were placed into a 2 mL tube, 1 mL of fresh N6 medium was added, and the cells were cultured overnight. (GlcNAc)8 (100 ng/mL), Pseudomonas aeruginosa-derived lipopolysaccharide (LPS, 50 μg/mL, Sigma), and (GlcNH2)7 (2 μg/mL) were used as elicitors. An elicitor was added to NT and CEBiP-RNAi cultured rice cells, treatment was carried out for 30 minutes or two hours, then 25 μL of the medium solution was sampled for reactive oxygen measurements. As a control, a same amount of distilled water (DW) was added, and similar treatments were carried out. Reactive oxygen was measured by adding 25 μL of the reacted solution, 400 μL of 50 mM potassium phosphate buffer (PK, pH 7.9), 25 μL of 1.1 mM luminol, and 50 μL of 14 mM potassium ferricyanide to a tube, mixing, then immediately measuring chemiluminescence counts for ten seconds in a luminometer (Turner Design TD-20/20, Sunnyvale, Calif.).

CEBiP gene expression = assay: Effect of elicitor on CEBiP expression in cultured cells (FIG. 10); assay type: cell-based, rice
NT cultured rice cells = assay: Microarray analysis of elicitor-responsive genes, NT cultured rice cells; assay type: cell-based
Description: (§2) An oligoarray (Agilent) produced from a rice full-length cDNA database was used for the microarray analyses. For the preparation of Cyanine 3 (Cy3)- and Cyanine 5(Cy5)-labeled cRNAs, RNAs isolated from each of the cultured cells of NT and two kinds of CEBiP-RNAi cultured rice cells treated with (GlcNAc)8 for two hours ((GlcNAc)8-NT, (GlcNAc)8-CEBiP-RNAi #3, and (GlcNAc)8-CEBiP-RNAi #6) as well as of cultured cells treated with water as controls were used. Methods for Cy3- and Cy5-labeling and methods for hybridizing the Cy3- and Cy5-labeled samples with slide glasses onto which 22K rice oligoprobes have been attached were carried out according to the protocol from Agilent. The combinations of hybridization reagents that were used were Cy5-labeled (GlcNAc)8-NT/Cy3-labeled NT; [2] Cy5-labeled (GlcNAc)8-CEBiP-RNAi #3/Cy3-labeled CEBiP-RNAi #3; and [3] Cy5-labeled (GlcNAc)8-CEBiP-RNAi #6/Cy3-labeled CEBiP-RNAi #6. Furthermore, experiments in which the labeling reagents were swapped (the labeled forms were interchanged) were also performed. The obtained results were analyzed at http://tos.nias.affrc.go.jp/cgi-bin/tos17/array.cgi.

CEBiP-RNAi #6 rice cells = assay: Microarray analysis of elicitor-responsive genes, CEBiP-RNAi #6 cultured rice cells; assay type: cell-based
Description: as §2

rice protoplasts = assay: Reactive oxygen production in rice protoplasts, luminol method; assay type: cell-based, Oryza sativa L. cv. Nipponbare; conditions: 1 μL of 100 μg/mL (GlcNAc)8, 15 minutes
Protocol: Protoplasts were prepared from cultured rice cells, and the effect of the anti-Con A-CEBiP antibodies on elicitor-responsive reactive oxygen production was examined.
Cultured rice cells were strained through a metal mesh. Four days later, these cells were placed into 14 mL of 0.1% CaCl2, 0.02% MES, 9% Mannitol solution (pH 5.6) containing 2% Cellurase RS (Yakult) and 0.05% Pectolyase Y-23, and then gently shaken at 30° C. for six hours. Cells were filtered through a 25 μm nylon mesh, and the cells on the mesh were washed with 20 mL of Washing buffer (0.1% CaCl2/0.4 M Mannitol) (Nishimura, N., Tanabe, S., He, D.-Y, Yokota, T., Shibuya, N. and Minami, E. Plant Physiol. Biochem., 39, 1105-1110 (2001)). The protoplasts were collected into a 50 mL Falcon tube and recovered by centrifugation at 600 rpm for five minutes. […]
25 μL of the reacted solution, 400 μL of 50 mM potassium phosphate buffer (pH 7.9), 25 μL of 1.1 mM luminol, and 50 μL of 14 mM potassium ferricyanide were stirred in a tube, and immediately thereafter, a chemiluminescence count was measured for ten seconds using a luminometer (Turner Designs TD-20/20, Sunnyvale, Calif.). H2O2 concentration was calculated by producing a standard curve after measuring the luminescence by a commercially available H2O2 solution (aqueous 30% H2O2 solution, Wako Pure Chemical Industry).

NT rice cells = assay: Reactive oxygen production due to elicitors in NT cultured rice cells; assay type: cell-based, Oryza sativa L. cv. Nipponbare; conditions: (GlcNAc)8 100 ng/mL; FIG. 16
Protocol: as §1

[1] = (GlcNAc)8-NT/NT area, two hours
[2] = (GlcNAc)8 two hours vs water, NT cultured rice cells
[3] = (GlcNAc)8-CEBiP-RNAi #6/CEBiP-RNAi #6 area, two hours
[4] = (GlcNAc)8 two hours vs water, CEBiP-RNAi #6 cells
[5] = CEBiP-RNAi #6 cells vs non-transformant

SMILES: N[C@H]1[C@H](O[C@H]2[C@H](O)[C@@H](N)[C@H](O[C@H]3[C@H](O)[C@@H](N)[C@H](O[C@H]4[C@H](O)[C@@H](N)[C@H](O[C@H]5[C@H](O)[C@@H](N)[C@H](O[C@H]6[C@H](O)[C@@H](N)[C@H](O[C@H]7[C@H](O)[C@@H](N)C(O)O[C@@H]7CO)O[C@@H]6CO)O[C@@H]5CO)O[C@@H]4CO)O[C@@H]3CO)O[C@@H]2CO)O[C@H](CO)[C@@H](O)[C@@H]1O (stereo partly shown) [(GlcNH2)7]
- reactive oxygen responsiveness in both CEBiP-RNAi lines (CEBiP-RNAi rice cells): Non-responsiveness

SMILES: CC(=O)N[C@H]1[C@H](O[C@H]2[C@H](O)[C@@H](NC(C)=O)[C@H](O[C@H]3[C@H](O)[C@@H](NC(C)=O)[C@H](O[C@H]4[C@H](O)[C@@H](NC(C)=O)C(O)O[C@@H]4CO)O[C@@H]3CO)O[C@@H]2CO)O[C@H](CO)[C@@H](O[C@@H]2O[C@H](CO)[C@@H](O[C@@H]3O[C@H](CO)[C@@H](O[C@@H]4O[C@H](CO)[C@@H](O)[C@H](O)[C@H]4NC(C)=O)[C@H](O)[C@H]3NC(C)=O)[C@H](O)[C@H]2NC(C)=O)[C@@H]1O (stereo partly shown) [chitin oligosaccharide elicitor]
- induction of expression of the target gene (CEBiP) (CEBiP gene expression): induce expression

SMILES: CC(=O)N[C@H]1[C@H](O[C@H]2[C@H](O)[C@@H](NC(C)=O)[C@H](O[C@H]3[C@H](O)[C@@H](NC(C)=O)[C@H](O[C@H]4[C@H](O)[C@@H](NC(C)=O)C(O)O[C@@H]4CO)O[C@@H]3CO)O[C@@H]2CO)O[C@H](CO)[C@@H](O[C@@H]2O[C@H](CO)[C@@H](O[C@@H]3O[C@H](CO)[C@@H](O[C@@H]4O[C@H](CO)[C@@H](O[C@@H]5O[C@H](CO)[C@@H](O)[C@H](O)[C@H]5NC(C)=O)[C@H](O)[C@H]4NC(C)=O)[C@H](O)[C@H]3NC(C)=O)[C@H](O)[C@H]2NC(C)=O)[C@@H]1O (stereo partly shown) [(GlcNAc)8]
- number of genes whose expression level decreased (NT cultured rice cells; [1]): 220 genes
- number of genes whose expression level increased (NT cultured rice cells; [1]): 746 genes
- FOLD INCREASE NT* AK058296 1-aminocyclopropane-1-carboxylate oxidase (NT cultured rice cells; [2]): 6.6 fold
- FOLD INCREASE NT* AK058891 β-1.3 glucanase (NT cultured rice cells; [2]): 4.1 fold
- FOLD INCREASE NT* AK060423 Alanine:glyoxylate aminotransferase like protein (NT cultured rice cells; [2]): 11.2 fold
- FOLD INCREASE NT* AK060582 Replication protein A1(Os-RPA1) (NT cultured rice cells; [2]): 4.6 fold
- FOLD INCREASE NT* AK060625 GDSL-motif lipase/hydrolase (NT cultured rice cells; [2]): 6.4 fold
- FOLD INCREASE NT* AK060834 Calreticulin (NT cultured rice cells; [2]): 3.3 fold
- FOLD INCREASE NT* AK063651 Harpin induced protein (NT cultured rice cells; [2]): 24.7 fold
- FOLD INCREASE NT* AK066687 Shikimate kinase (NT cultured rice cells; [2]): 9.5 fold
- FOLD INCREASE NT* AK066784 Small GTP-binding protein (rab5A) (NT cultured rice cells; [2]): 2.1 fold
- FOLD INCREASE NT* AK067690 NAC Transcription factor (NT cultured rice cells; [2]): 2.4 fold
- FOLD INCREASE NT* AK068115 Harpin induced protein (NT cultured rice cells; [2]): 43.1 fold
- FOLD INCREASE NT* AK068993 PAL (NT cultured rice cells; [2]): 48.4 fold
- FOLD INCREASE NT* AK069456 Peroxidase (NT cultured rice cells; [2]): 10.9 fold
- FOLD INCREASE NT* AK071482 Caffeoyl-CoA 3-O-methyl-transferase (NT cultured rice cells; [2]): 11.3 fold
- FOLD INCREASE NT* AK071598 Lipid transfer protein (NT cultured rice cells; [2]): 10.0 fold
- FOLD INCREASE NT* AK072235 Cysteine proteinase (NT cultured rice cells; [2]): 4.3 fold
- FOLD INCREASE NT* AK073072 CEBiP (NT cultured rice cells; [2]): 2.6 fold
- FOLD INCREASE NT* AK100959 beta-Expansin(EXPB3) (NT cultured rice cells; [2]): 5.5 fold
- FOLD INCREASE NT* AK101431 Patatin-like protein (NT cultured rice cells; [2]): 19.6 fold
- FOLD INCREASE NT* AK102192 β-Galactosidase (NT cultured rice cells; [2]): 3.1 fold
- FOLD INCREASE NT* AK103094 Laccase (NT cultured rice cells; [2]): 10.0 fold
- FOLD INCREASE NT* AK105971 Pirin (NT cultured rice cells; [2]): 20.6 fold
- number of genes whose expression level decreased (CEBiP-RNAi #6 rice cells; [3]): 90 genes
- number of genes whose expression level increased (CEBiP-RNAi #6 rice cells; [3]): 361 genes
- FOLD INCREASE RNAi #6 AK058891 β-1.3 glucanase (CEBiP-RNAi #6 rice cells; [4]): 11.4 fold
- FOLD INCREASE RNAi #6 AK060582 Replication protein A1(Os-RPA1) (CEBiP-RNAi #6 rice cells; [4]): 2.8 fold
- FOLD INCREASE RNAi #6 AK060834 Calreticulin (CEBiP-RNAi #6 rice cells; [4]): 14.2 fold
- FOLD INCREASE RNAi #6 AK065812 Zea mays NADPH HC toxin reductase (CEBiP-RNAi #6 rice cells; [4]): 16.0 fold
- FOLD INCREASE RNAi #6 AK066784 Small GTP-binding protein (rab5A) (CEBiP-RNAi #6 rice cells; [4]): 2.5 fold
- FOLD INCREASE RNAi #6 AK067690 NAC Transcription factor (CEBiP-RNAi #6 rice cells; [4]): 3.4 fold
- FOLD INCREASE RNAi #6 AK068115 Harpin induced protein (CEBiP-RNAi #6 rice cells; [4]): 10.1 fold
- FOLD INCREASE RNAi #6 AK068993 PAL (CEBiP-RNAi #6 rice cells; [4]): 2.9 fold
- FOLD INCREASE RNAi #6 AK072235 Cysteine proteinase (CEBiP-RNAi #6 rice cells; [4]): 5.5 fold
- FOLD INCREASE RNAi #6 AK100959 beta-Expansin(EXPB3) (CEBiP-RNAi #6 rice cells; [4]): 5.4 fold
- FOLD INCREASE RNAi #6 AK102192 β-Galactosidase (CEBiP-RNAi #6 rice cells; [4]): 2.8 fold
- FOLD INCREASE RNAi #6 AK103094 Laccase (CEBiP-RNAi #6 rice cells; [4]): 2.1 fold
- FOLD INCREASE RNAi #6 AK103707 Ribosome inactivating protein 2 (CEBiP-RNAi #6 rice cells; [4]): 27.8 fold
- genes of the 746 increased in NT showing a suppression of two times or more (CEBiP-RNAi #6 rice cells; [5]): 45 genes
- genes of the 746 increased in NT showing suppression of two times or more or loss of elicitor responsiveness (CEBiP-RNAi #6 rice cells; [5]): 530 genes
- share of the 746 increased genes showing suppression of two times or more or loss of elicitor responsiveness (CEBiP-RNAi #6 rice cells; [5]): 71%
- genes of the 361 increased in CEBiP-RNAi #6 with increased expression levels compared to NT cells (CEBiP-RNAi #6 rice cells; elicitor treatment): one hundred
- genes whose expression level decreased with equivalent response in non-transformant and CEBiP-RNAi #6 rice cells (CEBiP-RNAi #6 rice cells; elicitor treatment): 44 genes
- genes whose expression level increased with equivalent response in non-transformant and CEBiP-RNAi #6 rice cells (CEBiP-RNAi #6 rice cells; elicitor treatment): 216 genes
- share of the 361 increased genes with increased expression levels compared to NT cells (CEBiP-RNAi #6 rice cells; elicitor treatment): approximately 28%
- genes decreased in NT showing suppression of two times or more or a loss in CEBiP-RNAi #6 (CEBiP-RNAi #6 rice cells; vs non-transformants): 176 genes
- share of genes decreased in NT showing suppression of two times or more or a loss in CEBiP-RNAi #6 (CEBiP-RNAi #6 rice cells; vs non-transformants): 80%
- production of reactive oxygen increase compared to the control (rice protoplasts): 1.7 times
- production of reactive oxygen in NT rice cells, LPS treatment in NT defined as 100% (NT rice cells): approximately 86.3%
